{"source": "patent US11214593B2", "about": "“Anticancer peptides and uses thereof” (SUIGENERIS FARMACOSMETICS, S.L., priority 2017, dated 2022)", "key": {"[1]": {"system": "human umbilical cord primary endothelial cells (HUVEC)", "assay": "In vitro proliferation assay to test toxicity (Assay 2, crystal violet staining)", "format": "cell-based", "conditions": "10 μM up to 40 μM final concentration, 72 h, FIG. 2", "excerpt": "(§1) The BXPC3 cell line from primary adenocarcinoma of human pancreas was provided by the Biomedical Research Institute (IRB) of Barcelona, and human umbilical cord primary endothelial cells (HUVEC) were obtained directly by the investigator and stored in liquid nitrogen in the laboratory. BXPC3 cells were maintained in RPMI-1640 culture medium (Gibco) supplemented with 10% fetal bovine serum and antibiotics. HUVEC cells were maintained in M199 culture medium (Gibco) supplemented with 20% fetal bovine serum, endothelial cell growth supplement (ECGS), Heparin (Hep) and antibiotics. Cultures were maintained in the cell incubator in a humid atmosphere at 37° C. containing 5% CO2.\n(§2) The different peptides to be tested were easily dissolved in DMSO at a concentration of 50 mM and subsequently a 5 mM intermediate dilution was prepared in Dulbecco's PBS which was subjected to two short cycles of sonication, which retendered the peptides completely soluble. […]\n(§3) Assays with the different peptides were performed following the protocol explained below. […] Once resuspended in culture medium, they were counted in Newbauer's chamber after a 1:1 dilution with trypan blue. […]\nThe optical density values per well were obtained by a Biotek Synergy™2 multi-detection microplate reader, using a 590 nm filter and by scanning reading, obtaining the mean values per well."}, "[2]": {"system": "human pancreatic tumor cell line BXPC3", "assay": "In vitro proliferation assay, cancer growth-inhibitory activity (Assay 1, crystal violet staining)", "format": "cell-based", "conditions": "BXPC3 cells, peptide 20 μM final concentration, 72 h, FIG. 1-A", "excerpt": "as §1, §2, §3\nThe optical density values per well were obtained by a Biotek Synergy™2 multi-detection microplate reader, using a 590 nm filter and by scanning reading, obtaining the mean values per well. […]"}}, "note": "No end group written: not given here."}
{"substance": "Ac-CFEISKY-NH2 [Peptide P1C, CH3-C(O)-CFEISKY-NH2]", "values": [{"measurement": "effect on the growth of normal non-transformed cells (toxicity)", "setting": "[1]", "result": "did not affect the growth"}]}
{"substance": "CFEISKY-NH2 [Peptide P1A, variant of the P1C peptide wherein the N-terminal end is free and the C-terminal end is amidated]", "values": [{"measurement": "inhibitory capacity on cancer cell growth (in words)", "setting": "[2]", "result": "remarkable inhibitory capacity"}]}
{"substance": "CH3-C(O)-CFEVSKY-NH2 (Ac-CFEVSKY-NH2) [Peptide P1B, variant of the P1C peptide wherein the isoleucine is substituted by a valine]", "values": [{"measurement": "inhibitory capacity on cancer cell growth (in words)", "setting": "[2]", "result": "remarkable inhibitory capacity"}]}
